According to US10441565B2, “Conjugate of memantine and arctigenin, and composition and use thereof” (Shenzhen Qingyaqirui Bio-Tech Co., Ltd., priority 2015, dated 2019):
Where a name gives a salt, the structure may show the parent alone.

Legend:
[1] = Pharmacokinetics in rats after gastric gavage, ATG concentration in plasma by LC-MS; type: in vivo, SD rats
Procedure: This test investigated the pharmacokinetics of arctigenin (ATG) and conjugate A04 in rats. The rats were administered by gastric gavage with ATG and A04, the whole blood sample was collected at various time points, the plasma was separated, and the concentration of ATG in plasma was determined by LC-MS.
Before the test, the rats were fasted for 12 hours, with free access to water, and were fed 2 hours after administration.
Blood sampling time points: 0.5, 1.0, 2.0, 4.0, 6.0, 8.0 and 12 h after administration by gastric gavage.
0.5 mL venous blood was taken from the posterior venous plexus of the rat's eyeball at the above set time points, put in a heparinized tube, centrifuged for 5 min at 11000 rpm to separate the plasma, and froze in a refrigerator at −20° C.
200 μL acetonitrile was added into 100 μL plasma samples, vortex mixed for 1 min, and centrifuged for 5 min at 11000 rpm; all the supernatant was taken out and put in a 10 mL test tube, dried in an airflow at 40° C., dissolved in 100 μL acetonitrile-water (1:9, v/v), and 10 μL was taken for UPLC/Q-TOF MS analysis.

[2] = system: drosophila Alzheimer's disease model wherein humanized A342 was overexpressed; assay: Pavlovian olfactory memory test, rescue of memory impairment in drosophila AD model; type: in vivo
Source text: A drosophila Alzheimer's disease model wherein humanized A342 was overexpressed (the model drosophila has significant learning and memory defects), was employed in the present invention to evaluate the effect of conjugate A04 in rescuing the learning and memory ability of the model drosophila.
Pavlovian olfactory memory platform was improved from the literatures (see Tully, T. et al., Classical conditioning and retention in normal and mutant Drosophila melanogaster. (1985) J. Comp. Physiol. A 157: 263-277; Tully, T. et al., Genetic dissection of consolidated memory in Drosophila. (1994) Cell 79: 35-47; Yin, J. C. et al., Induction of a dominant negative CREB transgene specifically blocks long-term memory in Drosophila. (1994) Cell 79: 49-58). The learning and memory test was performed in a behavior room having a constant temperature and humidity (25° C. and 70% relative humidity). The test comprises two stages:
training stage: about a hundred drosophilas were placed into a training tube covered with copper net inside, and the drosophilas sequentially smelt two odors (octanol (OCT) and methylcyclohexanol (MCH)). Each odor lasted for 1 minute, and after each of the odors, 45 seconds of fresh air were passed through. The drosophilas were subjected to 1 minute of electric shock only when it smelt the first odor. Such a set of procedures constituted a training cycle. In order to avoid the natural preference of the drosophilas for odors, one tube of the drosophilas smelt OCT first and then received an electric shock at each data point, while the other tube of the drosophilas smelt MCH first and then received an electric shock, and the mean value of the test results of the 2 tubes of drosophilas was a data point.
test stage: the drosophilas were immediately transferred to the selection point of a T-maze after the training, and then they were made to choose between the containers of the two odors within two minutes. After 2 minutes, the numbers of drosophilas in different containers were respectively counted, and the performance index (PI) was calculated. […]

[3] = system: APP/PS1 transgenic AD model mice; assay: Morris water maze test, memory impairment of APP/PS1 transgenic AD model mice; type: in vivo; details: 50 mg/kg/day by gastric gavage for 60 days, versus solvent-treated transgenic mice, FIG. 3
Procedure: In the present invention, conjugate A04 was administered by gastric gavage to APP/PS1 transgenic AD model mice, and then the effect of conjugate A04 on the memory impairment of transgenic AD model mice was detected through the classic Morris water maze test.
In this experiment, APP/PS1 double transgenic AD model mice, which developed Aβ deposition when they were about 6 months old, and had impairment on the space memory when they were about 7 months old, were employed. Therefore, in this experiment, the impairment on the space memory of the mice was further detected via the water maze test, and at the same time, whether conjugate A04 has a therapeutic or improving effect on the memory impairment was evaluated.
1) Identification of APP/PS1 double transgenic AD model mice: the mice's tail was snipped off, then the gene sequence of APP/PS1 in mice was identified by PCR. The wild type C57 (B6C3) mice were used as the negative control mice. […]
3) Morris water maze test: a mixture of water and fresh milk at a temperature of 19-20° C. was injected into a white round pool with a diameter of 120 centimeters daily in the test. […] The motion track and speed of the mice were automatically recorded by Anymaze and the matched camera. The average time of searching the platform in the four tests per day was recorded as the time for searching the platform on that day (latent period). […]

COc1cc(C[C@H]2C(=O)OC[C@@H]2Cc2ccc(OC)c(OC)c2)ccc1O [ATG, arctigenin]
oral bioavailability ([1]; according to further investigations of the present inventors): poor | ATG plasma concentration ([1]; rats, 20 mg/kg ATG by gastric gavage, lower detection limit 1.0 ng/ml): < 1.0 ng/mL

COc1ccc(C[C@H]2COC(=O)[C@@H]2Cc2ccc(OC(=O)NCCNC(=O)[C@@H](N)COC(=O)NC34CC5CC(C)(CC(C)(C5)C3)C4)c(OC)c2)cc1OC [Conjugate A04]
rescue effect on the memory impairment of AD drosophilas compared with Mem ([2]; 100 μM, 7 days, FIG. 2): better rescue effect on the memory impairment of AD drosophilas than Mem | latent period in the Morris water maze test [3]: significantly shorter than that of the transgenic mice treated with the solvent

CC12CC3CC(C)(C1)CC(N)(C3)C2 [Mem, memantine]
performance index (PI) ([2]; AD drosophilas, 100 μM in 4% sucrose, 4 hours per day for 7 days, AD negative control PI 41, genetic control 19 higher): 55 | rescue effect ([2]; AD drosophilas, negative control group 0%, genetic control group 100%): more than 50%

CC12CC3CC(C)(C1)CC(N)(C3)C2 [memantine hydrochloride]
latent period in the Morris water maze test [3]: no significant change compared with that of the transgenic AD model mice
